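1) Cells in 96-well plates. 2) Compound, 48 h, 5 concentrations. 3) Linear interpolation between surrounding doses. 4) Unreached endpoint = highest concentration. Definition used: TGI = concentration required for complete inhibition of growth.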
Experiments:
Assay in all cases: NCI tumour cell line growth inhibition, 48 h
SNB-75 CNS = test system: SNB-75 CNS
HCC-2998 colon = test system: HCC-2998 colon
UACC-257 melanoma = test system: UACC-257 melanoma
NCI-H23 lung = test system: NCI-H23 lung
UO-31 renal = test system: UO-31 renal
786-0 renal = test system: 786-0 renal
SW-620 colon = test system: SW-620 colon
MALME-3M melanoma = test system: MALME-3M melanoma
NCI-H522 lung = test system: NCI-H522 lung
HCT-15 colon = test system: HCT-15 colon
SK-OV-3 ovarian = test system: SK-OV-3 ovarian
LOX IMVI melanoma = test system: LOX IMVI melanoma
NCI-H460 lung = test system: NCI-H460 lung
MCF7 breast = test system: MCF7 breast
M14 melanoma = test system: M14 melanoma
PC-3 prostate = test system: PC-3 prostate
EKVX NSCLC = test system: EKVX NSCLC
SK-MEL-5 melanoma = test system: SK-MEL-5 melanoma
SN12C renal = test system: SN12C renal
RPMI-8226 leukemia = test system: RPMI-8226 leukemia
ACHN renal = test system: ACHN renal
K-562 leukemia = test system: K-562 leukemia
U251 CNS = test system: U251 CNS
HOP-92 NSCLC = test system: HOP-92 NSCLC
A549 NSCLC = test system: A549 NSCLC
CAKI-1 renal = test system: CAKI-1 renal
SK-MEL-2 melanoma = test system: SK-MEL-2 melanoma
HT29 colon = test system: HT29 colon
DU-145 prostate = test system: DU-145 prostate
RXF 393 renal = test system: RXF 393 renal
MDA-MB-231 breast = test system: MDA-MB-231 breast
SK-MEL-28 melanoma = test system: SK-MEL-28 melanoma
TK-10 renal = test system: TK-10 renal
KM12 colon = test system: KM12 colon
OVCAR-5 ovarian = test system: OVCAR-5 ovarian
HL-60(TB) leukemia = test system: HL-60(TB) leukemia
SF-539 CNS = test system: SF-539 CNS
HOP-62 NSCLC = test system: HOP-62 NSCLC
OVCAR-4 ovarian = test system: OVCAR-4 ovarian
MOLT-4 leukemia = test system: MOLT-4 leukemia
NCI/ADR-RES ovarian = test system: NCI/ADR-RES ovarian
T-47D breast = test system: T-47D breast
OVCAR-3 ovarian = test system: OVCAR-3 ovarian
HCT-116 colon = test system: HCT-116 colon
NCI-H226 lung = test system: NCI-H226 lung
BT-549 breast = test system: BT-549 breast
CCRF-CEM leukemia = test system: CCRF-CEM leukemia
SR leukemia = test system: SR leukemia
SF-295 CNS = test system: SF-295 CNS
HS 578T breast = test system: HS 578T breast
OVCAR-8 ovarian = test system: OVCAR-8 ovarian
A498 renal = test system: A498 renal
IGROV1 ovarian = test system: IGROV1 ovarian
MDA-MB-435 = test system: MDA-MB-435
SF-268 CNS = test system: SF-268 CNS
SNB-19 CNS = test system: SNB-19 CNS
COLO 205 colon = test system: COLO 205 colon

COC(=O)CCC(C)[C@H]1CCC2C3C(C[C@H](OC(C)=O)[C@@]21C)[C@@]1(C)CCC2(C[C@H]1C[C@H]3OC(C)=O)OOC1(CCC(C(C)(C)C)CC1)OO2 (some centres not stated)
TGI (SNB-75 CNS): > 100 µM
TGI (HCC-2998 colon): > 100 µM
TGI (UACC-257 melanoma): > 100 µM
TGI (NCI-H23 lung): > 100 µM
TGI (UO-31 renal): 29 µM
TGI (786-0 renal): > 100 µM
TGI (SW-620 colon): > 100 µM
TGI (MALME-3M melanoma): > 100 µM
TGI (NCI-H522 lung): > 100 µM
TGI (HCT-15 colon): > 100 µM
TGI (SK-OV-3 ovarian): > 100 µM
TGI (LOX IMVI melanoma): > 100 µM
TGI (NCI-H460 lung): > 100 µM
TGI (MCF7 breast): > 100 µM
TGI (M14 melanoma): > 100 µM
TGI (PC-3 prostate): > 100 µM
TGI (EKVX NSCLC): 30 µM
TGI (SK-MEL-5 melanoma): > 100 µM
TGI (SN12C renal): > 100 µM
TGI (RPMI-8226 leukemia): 45.2 µM
TGI (ACHN renal): > 100 µM
TGI (K-562 leukemia): > 100 µM
TGI (U251 CNS): > 100 µM
TGI (HOP-92 NSCLC): > 100 µM
TGI (A549 NSCLC): > 100 µM
TGI (CAKI-1 renal): > 100 µM
TGI (SK-MEL-2 melanoma): > 100 µM
TGI (HT29 colon): > 100 µM
TGI (DU-145 prostate): > 100 µM
TGI (RXF 393 renal): > 100 µM
TGI (MDA-MB-231 breast): > 100 µM
TGI (SK-MEL-28 melanoma): > 100 µM
TGI (TK-10 renal): > 100 µM
TGI (KM12 colon): > 100 µM
TGI (OVCAR-5 ovarian): > 100 µM
TGI (HL-60(TB) leukemia): > 100 µM
TGI (SF-539 CNS): > 100 µM
TGI (HOP-62 NSCLC): 29 µM
TGI (OVCAR-4 ovarian): > 100 µM
TGI (MOLT-4 leukemia): > 100 µM
TGI (NCI/ADR-RES ovarian): > 100 µM
TGI (T-47D breast): > 100 µM
TGI (OVCAR-3 ovarian): > 100 µM
TGI (HCT-116 colon): > 100 µM
TGI (NCI-H226 lung): > 100 µM
TGI (BT-549 breast): > 100 µM
TGI (CCRF-CEM leukemia): > 100 µM
TGI (SR leukemia): > 100 µM
TGI (SF-295 CNS): > 100 µM
TGI (HS 578T breast): > 100 µM
TGI (OVCAR-8 ovarian): > 100 µM
TGI (A498 renal): > 100 µM
TGI (IGROV1 ovarian): 48.8 µM
TGI (MDA-MB-435): > 100 µM
TGI (SF-268 CNS): > 100 µM
TGI (SNB-19 CNS): > 100 µM
TGI (COLO 205 colon): > 100 µM

Source: PubChem BioAssay (NCI)
